Results published in PMC8355244, “A fragment-based approach identifies an allosteric pocket that impacts malate dehydrogenase activity” (Communications Biology, 2021).
Where “and” joins values, the source holds several entries; their conditions need not be identical. Identical values can stand only once. Like-named read-outs stand apart in the source and are kept apart here.

Experiments:
PfMDH = biological target: T1, PfMDH (Plasmodium falciparum, UniProt Q6VVP7); experiment: Kinetics experiment with varying L-malate, substrate inhibition model; assay type: biochemical; design: unit not given here; conditions: malate 5 mM, replicates
T1 construct: The full-length WT PfMDH gene was cloned into pETM-13; made in house; host or cells: E. coli Rosetta 2 (DE3) pLysS
T1 sequence (Q6VVP7 entry or part of it): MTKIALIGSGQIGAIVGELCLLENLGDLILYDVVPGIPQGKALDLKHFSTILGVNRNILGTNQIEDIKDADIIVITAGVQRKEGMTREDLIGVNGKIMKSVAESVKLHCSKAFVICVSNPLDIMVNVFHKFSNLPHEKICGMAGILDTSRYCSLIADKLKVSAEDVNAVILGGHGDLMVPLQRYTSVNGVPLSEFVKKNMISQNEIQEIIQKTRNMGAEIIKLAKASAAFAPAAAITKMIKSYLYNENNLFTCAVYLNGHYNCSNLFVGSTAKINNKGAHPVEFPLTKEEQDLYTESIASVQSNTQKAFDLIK
Method: (§1) The oxidation of malate to oxaloacetate was assayed spectrophotometrically in flat-bottomed Corning 96-well microplates in a total volume of 250.0 µl in 50 mM glycine buffer pH 10.2[24] with an additional 400 mM NaCl for protein stability. The increase of absorbance at 340 nm was recorded in kinetic mode using a Tecan Spark multimode microplate reader at 298 K. A mastermix of 50 mM NAD+ and 44 μM PfMDH was used for both the screening and kinetics experiments. The final concentration of protein and cofactor were […], respectively. Positive control groups were set (absence of compound) in the same plate as the treated group. The absorbance from the background noise was subtracted from the data and then a linear regression model was employed in order to get the line slope from the first 5 min of the reaction. The percentage of enzymatic activity has been calculated as described by Eq. (1)1 enzymeactivity(%)=slopetreated/slopepositivecontrol*100
Kinetics experiments were performed by mixing 1.3 µL of compound stock solutions from 12.5 and 25 mM of 4PA in 100% DMSO with 223.8 µL mastermix of PfMDH previously incubated in ice with 3 mM NAD+ for 30 min. […] Kinetic constants Km (mM) and Vmax (U * mg^−^1) and Ki (mM) were quantified with GraphPad Prism version 8.0 according to the substrate inhibition Eq. (2)[52].2 Y=Vmax*X/(Km+X^*(1+X/Ki))

[1] = Precipitation / turbidity of compound in assay buffer (600 nm); assay type: physicochemical; conditions: aqueous assay buffer
Method: 1.3 µL of derivatives of 4-phenylthiazol-2-amine in 100% DMSO were mixed with 237.7 µL of a mastermix of WT PfMDH previously incubated with NAD+. The final compound concentration used in this screening was 500 µM in the presence of 0.5% (v/v) DMSO. The microplate was sealed with silver foil for 1-h incubation at 25–35 °C. Finally, reactions in both the samples and control wells were started upon the addition of 13.0 µL of 5 mM malate). At the end of the experiments, the reaction of the plate was spectrophotometrically assayed at 600 nm in order to identify turbidity due to the low solubility of the compound. All measurements were performed in duplicate.

WT PfMDH = biological target: T2, WT PfMDH (Plasmodium falciparum, UniProt Q6VVP7); experiment: 4PA dose-response inhibition of PfMDH; assay type: biochemical; conditions: for Slope / Response (Delta Abs[340 nm]/min): replicates
T2 construct: The full-length WT PfMDH gene was cloned into pETM-13; made in house; host or cells: E. coli Rosetta 2 (DE3) pLysS
T2 sequence (Q6VVP7 entry or part of it): as above
Method: as §1
While the fragment initially discovered was 4-(3,4-difluorophenyl) thiazol-2-amine, we decided to perform enzymatic and kinetic assays using a similar substructure 4-phenylthiazol-2-amine. 2× fold dilutions from a 200 mM stock solution of the compound in 100% DMSO was prepared for dose–response experiments. 3.3 µL of compound (DMSO in the case of positive control) were mixed with 233.9 µL mastermix of WT PfMDH previously incubated with 3 mM NAD + using a multichannel pipette. The final conditions tested were a maximum of 2.5 mM of 4PA at 1.32% (v/v) final DMSO concentration. The microplate was incubated for 15 min at 25.35 °C and the reaction started with the addition of 13.0 µL of 5 mM L-malate.

Q: With `Nc1nc(-c2ccccc2)cs1` [4PA, 4-phenylthiazol-2-amine] as the compound, how does the “4PA kinetics raw data (rate)” value (PfMDH; PfMDH + 63 uM) read?
A: 0.0233 and 0.02526 and 0.02238

Q: What about the “4PA kinetics raw data (rate)” value (PfMDH; PfMDH + 125 uM) of the same compound?
A: 0.01868 and 0.01853 and 0.02184

Q: And the “solubility (in words)” value [1]?
A: slightly more soluble than 4DT

Q: And the IC50 (WT PfMDH; 5 mM L-malate, 3 mM NAD+, pH 10.2, read-out: IC50)?
A: 1120 ± 30 µM

Q: And the Slope (WT PfMDH; Dose 1e-6 M)?
A: 0.04587 and 0.04675 and 0.04799

Q: What about the Slope (WT PfMDH; Dose 0.000237161 M) of the same compound?
A: 0.03425 and 0.02991 and 0.02497

Q: What about the Slope (WT PfMDH; Dose 0.000332026 M) of the same compound?
A: 0.03311 and 0.03278 and 0.02964

Q: What about the Slope (WT PfMDH; Dose 0.000464836 M) of the same compound?
A: 0.03179 and 0.02952 and 0.02569

Q: And the Slope (WT PfMDH; Dose 0.000650771 M)?
A: 0.0287 and 0.02683 and 0.02888

Q: What about the Slope (WT PfMDH; Dose 0.000911079 M) of the same compound?
A: 0.02984 and 0.02623 and 0.02457

Q: And the Slope (WT PfMDH; Dose 0.00127551 M)?
A: 0.01897 and 0.02591 and 0.01942

Q: And the Slope (WT PfMDH; Dose 0.00178571 M)?
A: 0.01091 and 0.01205 and 0.0179

Q: And the Slope (WT PfMDH; Dose 0.0025 M)?
A: 0.01337 and 0.01172 and 0.009871

Q: And the “Response (Delta Abs[340 nm]/min)” value (WT PfMDH; Dose 1.00E-06 M)?
A: 4.59E-02 Delta Abs[340 nm]/min and 4.67E-02 Delta Abs[340 nm]/min and 4.80E-02 Delta Abs[340 nm]/min

Q: And the “Response (Delta Abs[340 nm]/min)” value (WT PfMDH; Dose 1.28E-03 M)?
A: 1.90E-02 Delta Abs[340 nm]/min and 2.59E-02 Delta Abs[340 nm]/min and 1.94E-02 Delta Abs[340 nm]/min

Q: What about the “Response (Delta Abs[340 nm]/min)” value (WT PfMDH; Dose 1.79E-03 M) of the same compound?
A: 1.09E-02 Delta Abs[340 nm]/min and 1.20E-02 Delta Abs[340 nm]/min and 1.79E-02 Delta Abs[340 nm]/min

Q: And the “Response (Delta Abs[340 nm]/min)” value (WT PfMDH; Dose 2.37E-04 M)?
A: 3.43E-02 Delta Abs[340 nm]/min and 2.99E-02 Delta Abs[340 nm]/min and 2.50E-02 Delta Abs[340 nm]/min

Q: What about the “Response (Delta Abs[340 nm]/min)” value (WT PfMDH; Dose 2.50E-03 M) of the same compound?
A: 1.34E-02 Delta Abs[340 nm]/min and 1.17E-02 Delta Abs[340 nm]/min and 9.87E-03 Delta Abs[340 nm]/min

Q: And the “Response (Delta Abs[340 nm]/min)” value (WT PfMDH; Dose 3.32E-04 M)?
A: 3.31E-02 Delta Abs[340 nm]/min and 3.28E-02 Delta Abs[340 nm]/min and 2.96E-02 Delta Abs[340 nm]/min

Q: What about the “Response (Delta Abs[340 nm]/min)” value (WT PfMDH; Dose 4.65E-04 M) of the same compound?
A: 3.18E-02 Delta Abs[340 nm]/min and 2.95E-02 Delta Abs[340 nm]/min and 2.57E-02 Delta Abs[340 nm]/min

Q: And the “Response (Delta Abs[340 nm]/min)” value (WT PfMDH; Dose 6.51E-04 M)?
A: 2.87E-02 Delta Abs[340 nm]/min and 2.68E-02 Delta Abs[340 nm]/min and 2.89E-02 Delta Abs[340 nm]/min

Q: And the “Response (Delta Abs[340 nm]/min)” value (WT PfMDH; Dose 9.11E-04 M)?
A: 2.98E-02 Delta Abs[340 nm]/min and 2.62E-02 Delta Abs[340 nm]/min and 2.46E-02 Delta Abs[340 nm]/min

Q: What about the “LogIC50 (best-fit value)” value (WT PfMDH; log(inhibitor) vs. normalized response, variable slope) of the same compound?
A: -2.934 and -2.922

Q: And the IC50 (WT PfMDH; log(inhibitor) vs. normalized response, variable slope, read-out: IC50 (best-fit value))?
A: 1160 µM and 1200 µM
